# Measurements published in patent EP0000336A1, “N-benzylpyrimidinyl-amidines, process for their preparation and medicines containing them” (BASF Aktiengesellschaft, priority 1977, dated 1979).
# Tested on: Streptococcus agalactiae 7941
# Assay: Aronson sepsis model in mice, sulfonamide potentiation compared with trimethoprim
# Assay type: in vivo
# Settings: female mice (groups of 30), lethal dose of Streptococcus agalactiae 7941; treated 2 h after infection with 300 mg 2-Sulfanilamido-4,5-dimethyloxazol + 60 mg test substance; survivors after 44 h divided by survivors of the group given 300 mg 2-Sulfanilamido-4,5-dimethyloxazol + 60 mg Trimethoprim
# Description: Verwendet man beispielsweise N-[4-Amino-5-(3,4,5-trimethoxybenzyl)-pyrimidin-2-yl]-acetamidsäureäthylester und Anilin als Ausgangsstoffe, so kann der Reaktionsverlauf durch folgendes Formelschema wiedergegeben werden: [drawing 7] 2um Wirksamkeitsnachweis wurden erfindungsgemäße Substanzen im Tierversuch am Modell der sogenannten Aronson-Sepsis, wobei mit Streptococcus agalactiae infiziert wird, geprüft und mit dem bekannten Trimethoprim verglichen. Hierzu wurden Gruppen von je 30 weiblichen Mäusen mit einer tödlichen Dosis von Streptococcus agalactiae 7941 infiziert und 2 Stunden nach der Infektion mit einer Mischung von 300 mg 2-Sulfanilamido-4,5-dimethyloxazol + 60 mg einer der erfindungsgemäßen Substanzen behandelt. Außer einer nicht behandelten Kontrollgruppe wurde eine zweite Gruppe mit dem als Referenzsubstanz dienenden Gemisch von 300 mg 2-Sulfanilamido-4,5-dimethyloxazol + 60 mg Trimethoprim behandelt. Nach 44 Stunden wurde die Zahl der überlebenden Tiere bestimmt und diese Zahl durch die Zahl der überlebenden aus der mit der Referenzsubstanz behandelten Gruppe dividiert. Der so erhaltene Zahlenwert (Trimethoprimfaktor) ist ein Maß für die Wirkung der erfindungsgemäßen Substanzen im Vergleich zum Trimethoprim. F = 2 bedeutet also, daß die Substanz doppelt so wirksam ist wie Trimethoprim. […]
smiles,measurement,value
COc1cc(Cc2cnc(N=C(C)N(C)C)nc2N)cc(OC)c1OC [Beispiel 1],F (Trimethoprimfaktor),"1,2"
